Results from publication PMC6222544, “Fragment-Based Lead Generation of 5-Phenyl-1H-pyrazole-3-carboxamide Derivatives as Leads for Potent Factor Xia Inhibitors” (Molecules : A Journal of Synthetic Chemistry and Natural …, 2018).
pKi: −log10 of the molar value. Like-named read-outs stand apart in the source and are kept apart here.

Key:
human FXIa = biological target: T1, human FXIa (Homo sapiens, UniProt P03951); assay: Inhibition of FXIa in vitro (chromogenic substrate assay); type: biochemical
T1 construct: purchased Haematologic Technologies, Essex Junction, VT, USA
T1 sequence (P03951 388-625 limits assumed): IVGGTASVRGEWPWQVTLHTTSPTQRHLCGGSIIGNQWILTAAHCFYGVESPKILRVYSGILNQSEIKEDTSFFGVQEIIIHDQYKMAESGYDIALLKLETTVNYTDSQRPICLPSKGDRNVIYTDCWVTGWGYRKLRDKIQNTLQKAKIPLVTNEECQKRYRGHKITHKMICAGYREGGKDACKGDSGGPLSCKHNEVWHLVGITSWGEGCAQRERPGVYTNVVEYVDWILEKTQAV
T1 sequence (P03951 19-387 partner limits assumed): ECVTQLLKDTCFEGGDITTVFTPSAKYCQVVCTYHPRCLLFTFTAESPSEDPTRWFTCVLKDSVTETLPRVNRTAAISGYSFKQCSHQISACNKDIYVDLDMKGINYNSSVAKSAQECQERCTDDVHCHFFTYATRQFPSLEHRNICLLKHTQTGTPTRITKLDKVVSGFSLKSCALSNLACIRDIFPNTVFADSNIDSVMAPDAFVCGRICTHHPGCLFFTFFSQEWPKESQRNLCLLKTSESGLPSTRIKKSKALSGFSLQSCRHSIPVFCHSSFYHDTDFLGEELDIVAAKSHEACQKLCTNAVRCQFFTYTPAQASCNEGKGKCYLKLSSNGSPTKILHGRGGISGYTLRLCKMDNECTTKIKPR
Procedure: The negative controlwas composed of the same mixed solutions except replacing test compound with DMSO. […] The IC50 was calculated by IBM SPSS Statistics 22.0 (IBM Inc., North Castle, NY, USA) and the Probit function in it. IC50 values were converted to Ki values by the followingrelationship:Ki = IC50/(1 + [S]/Km)

rabbit plasma = assay: aPTT in vitro coagulation assay; type: biochemical; settings: incubated 3 min at 37 °C
Procedure: A commercially available automatic Coagulation analyzer (Steellex Science Instrument Co., Ltd., Beijing, China) was employed to measure aPTT. The clotting times were also measured using the instrument itself, in accordance with the manufacturer’s instructions. Increasing concentrations of inhibitor or solvent were added to rabbit (Beijing Longan Experimental Animal Breeding Center, SCXK(Jing)2016-0006, Beijing, China) plasma and incubated for 3 min at 37 °C. APTT was determined by automatic Coagulation analyzer.

FXIa = settings: representative FXIa inhibitors, Figure 1; cited from earlier work
[1] = human FXIa, chromogenic substrate BIOPHEN CS-21(66), 37 °C, pH 7.4, Ki = IC50/(1 + [S]/Km), read-out: Ki

pKi (human FXIa; Table 1 values, read-out: FXIa inhibitory potency (Ki))	pKi (human FXIa; [1])	melting point	SMILES	1.5× aPTT (μM) (Rabbit) (rabbit plasma)	pKi (FXIa)
7.63	7.63	–	NC[C@H]1CC[C@H](C(=O)NC(Cc2ccccc2)c2ncc(-c3ccc4c(N)n[nH]c4c3)[nH]2)CC1 (stereo partly shown) [Compound 4, reference compound]	3.79 µM	–
–	–	–	CC1CC1C(=O)Nc1ccc(C[C@H](NC(=O)c2cc(-c3cccc(Cl)c3F)[nH]n2)C(=O)Nc2ccc3[nH]c(C(=O)O)cc3c2)cc1 (stereo partly drawn) [Compound 7za, 5-((2S)-2-(5-(3-Chloro-2-fluorophenyl)-1H-pyrazole-3-carboxamido)-3-(4-(2-methylcyclopropane-carboxamido)phenyl)propanamido)-1H-indole-2-carboxylic acid]	43.33 µM	–
–	–	–	COC1CCN(c2cccc3c2CCN(C(=O)c2cc(-c4cccc(Cl)c4)[nH]n2)[C@@H]3C(=O)Nc2ccc(C(=O)O)cc2)CC1 [Compound 2]	–	7.73
–	< 4.07	126 to 128 °C (dec.)	CCc1c(C(=O)N[C@@H](Cc2ccccc2)C(=O)Nc2ccc(C(=O)O)cc2)n[nH]c1-c1cccc(Cl)c1 [Compound 7n, (S)-4-(2-(5-(3-Chlorophenyl)-4-ethyl-1H-pyrazole-3-carboxamido)-3-phenylpropanamido)benzoic acid]	–	–
